The subject of assay [1] is 5HT2A receptors (cerebral cortex). The assay can be described thus: I125-LSD displacement from brain sections, cortex (autoradiography). It counts as binding, Sprague-Dawley rats. Conditions: 1 micromolar compound, 1 nanomolar I125-LSD, 30 minutes, room temperature.
Assay [2] relates to human mutated 5HT2A receptor, AP-3. The experiment in a line: Receptor-mediated inositol phosphate (IP3) accumulation, AP-3. It counts as cell-based. Conditions: statement in words.
The subject of assay [3] is Adult male Sprague-Dawley rats. The experiment in a line: Amphetamine-stimulated locomotor activity. It counts as in vivo. An excerpt:
A 5HT2A receptor antagonist or inverse agonist is expected to decrease amphetamine-stimulated locomotion without affecting baseline locomotion. See, for example, Soresnon, et al, 266(2) J. Pharmacol. Exp. Ther. 684 (1993). […] For the following study, the following parameters and protocol were utilized:
Adult male Sprague-Dawley rats were utilized for these studies. Animals were housed in groups of 2-3 in hanging plastic cages with food and water available at all times. Animals were weighed and handled for at least one day prior to surgery and throughout the studies. For these studies, Vehicle consisted of 90% ethanol (100%) and 10% water.
A San Diego Instruments Flex Field apparatus was used to quantify baseline and amphetamine-stimulated locomotor activity. This apparatus consists of four 16"×16" clear plastic open fields. Photocell arrays (16 in each dimension) interfaced with a personal computer to automatically quantify activity. Several measures of activity can be assessed with the apparatus, including total photocell beam breaks. Animals (vehicle control and Compound treated) were injected s.c. 30 minutes prior to initiation of analysis. Following this 30 minute period, animals were placed individually into an open field and baseline activity was assessed for 30 minutes (habituation phase). […]

In assay [4] the target is T1, constitutively active mutant human 5HT2C receptor AP-1 (Homo sapiens, UniProt P28335, S310K).
T1 construct: expressed in transfected cells
T1 sequence (P28335 33-458 S310K): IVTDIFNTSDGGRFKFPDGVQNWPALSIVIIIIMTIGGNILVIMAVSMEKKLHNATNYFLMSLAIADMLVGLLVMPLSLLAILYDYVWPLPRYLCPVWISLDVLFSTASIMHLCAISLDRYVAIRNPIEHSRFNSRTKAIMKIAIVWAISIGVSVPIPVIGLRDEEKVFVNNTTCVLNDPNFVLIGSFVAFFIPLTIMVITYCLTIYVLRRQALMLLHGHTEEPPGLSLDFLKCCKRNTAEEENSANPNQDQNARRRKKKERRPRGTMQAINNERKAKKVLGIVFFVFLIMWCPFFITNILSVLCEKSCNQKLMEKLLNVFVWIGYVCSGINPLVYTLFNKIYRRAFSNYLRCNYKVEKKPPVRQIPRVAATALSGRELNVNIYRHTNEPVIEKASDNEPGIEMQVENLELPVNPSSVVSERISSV
The experiment in a line: [35S]GTPγS binding assay, AP-1 membranes. It counts as biochemical. Conditions: 30 μM mianserin, 293T cells, Wallac scintistrips.

In assay [5] the target is T2, endogenous human 5-HT2C receptor (Homo sapiens, UniProt P28335).
T2 sequence (P28335 33-458): T1 sequence (P28335 33-458 S310K) with K278S

Where a chain is given by its changes, count along the chain named.

Consider `COc1ccc(OC(=O)Nc2cccc(-c3nn(C)cc3Br)c2)cc1` [Compound 116100, N-[3-(4-bromo-1-methylpyrazol-3-yl)phenyl][4-methoxyphenoxy]carboxamide], for which the “displacement of I125-LSD from cortex (5HT2A)” value in assay [1] is given as “appears to selectively displace the I^125 -LSD from the cortex (5HT2A)”.

As to `Cn1cc(Br)c(-c2cccc(NC(=O)c3cccs3)c2)n1` [Compound 116102, N-[3-(4-bromo-1-methylpyrazol-3-yl)phenyl][2-thienyl]carboxamide], in assay [2], the “inverse agonist activity at the human 5HT2A receptor” value is “potent inverse agonist”. Moreover, in assay [3] (116102 s.c. 0.1, 1.0, 5.0 mg/kg, d-amphetamine sulfate 1.0 mg/kg), the “amphetamine-stimulated locomotion (photobeam breaks)” value is “a decrease in the amphetamine-stimulated locomotion”. Further, the “dose-response pattern of locomotor activity” value in assay [3] (116102 s.c. 0.1-10 mg/kg, FIGS. 17A-C) is reported as “a general "inverted U" shaped pattern was observed”.

On to `CN1CCN2c3ccccc3Cc3ccccc3C2C1` (centres unmarked) [mianserin], for which, in assay [4], the “inhibition of serotonin-stimulated [35S]GTPγS binding, AP-1 (FIG. 10)” value is “inhibition”. For the same compound, in assay [5] (30 μM mianserin, COS cells), the “inhibition of serotonin-stimulated [35S]GTPγS binding (FIG. 9)” value is “completely inhibited”. Further, the “inhibition of serotonin-stimulated [35S]GTPγS binding (FIG. 10)” value in assay [5] (endogenous human 5-HT2C per text) is reported as “inhibits this response”. Also, in assay [5] (no agonist, endogenous human 5-HT2C per text), the “inhibition of basal constitutive [35S]GTPγS binding (FIG. 10)” value is “acts as a partial inverse agonist by inhibiting the basal constitutive binding of [^35 S]GTPγS”.

These data come from patent US6140509A (priority 1999, dated 2000).
